Experimental data from ChEMBL document CHEMBL1201862, “PubChem BioAssay data set” (2004).
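1) Cells in 96-well plates. 2) Compound, 48 h, 5 concentrations. 3) Linear interpolation between surrounding doses. 4) Unreached endpoint = highest concentration. GI50 is the concentration that inhibits growth by half.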 Active and inactive are the calls of the source. Cut-off read from the data, not from the text of the source: active = GI50 up to about 1.1 µM and inactive = higher.

Assays:
Assay in all cases: DTP human tumour cell line panel, 48 h
[1] = system: EKVX
[2] = system: HOP-92
[3] = system: OVCAR-5
[4] = system: UO-31
[5] = system: M19-MEL
[6] = system: OVCAR-4
[7] = system: DLD-1
[8] = system: ACHN
[9] = system: CAKI-1
[10] = system: RXF 631
[11] = system: A498
[12] = system: SK-MEL-2
[13] = system: SF-295
[14] = system: LXFL 529
[15] = system: SNB-19
[16] = system: SW-620
[17] = system: SK-OV-3
[18] = system: NCI-H226
[19] = system: SN12C
[20] = system: SNB-75
[21] = system: HCT-15
[22] = system: Malme-3M
[23] = system: MOLT-4
[24] = system: 786-0
[25] = system: DMS-273
[26] = system: UACC-257
[27] = system: KM-20L2
[28] = system: HOP-62
[29] = system: A549
[30] = system: HCT-116
[31] = system: SK-MEL-5
[32] = system: NCI-H522
[33] = system: HL-60
[34] = system: RXF 393
[35] = system: OVCAR-8
[36] = system: SNB-78
[37] = system: HT-29
[38] = system: OVCAR-3
[39] = system: M14
[40] = system: NCI-H460
[41] = system: SK-MEL-28
[42] = system: NCI-H23
[43] = system: SF-539
[44] = system: HCC 2998
[45] = system: KM12
[46] = system: SF-268
[47] = system: UACC-62
[48] = system: HOP-18
[49] = system: COLO 205
[50] = system: IGROV-1
[51] = system: DMS-114
[52] = system: XF498
[53] = system: TK-10
[54] = system: U-251

## Cc1ccc(NC(=O)C2C(=O)N(c3ccc(C)c(C)c3)C(=O)C2N=N)cc1C (centres undefined)
[1]
  GI50: > 100 µM (inactive)
[2]
  GI50: 47.9 µM (inactive)
[3]
  GI50: > 100 µM (inactive)
[4]
  GI50: > 100 µM (inactive)
[5]
  GI50: > 100 µM (inactive)
[6]
  GI50: > 100 µM (inactive)
[7]
  GI50: > 100 µM (inactive)
[8]
  GI50: 90.4 µM (inactive)
[9]
  GI50: > 100 µM (inactive)
[10]
  GI50: > 100 µM (inactive)
[11]
  GI50: > 100 µM (inactive)
[12]
  GI50: > 100 µM (inactive)
[13]
  GI50: 65 µM (inactive)
[14]
  GI50: > 100 µM (inactive)
[15]
  GI50: > 100 µM (inactive)
[16]
  GI50: > 100 µM (inactive)
[17]
  GI50: > 100 µM (inactive)
[18]
  GI50: > 100 µM (inactive)
[19]
  GI50: > 100 µM (inactive)
[20]
  GI50: > 100 µM (inactive)
[21]
  GI50: 74.6 µM
[22]
  GI50: > 100 µM (inactive)
[23]
  GI50: > 100 µM (inactive)
[24]
  GI50: > 100 µM (inactive)
[25]
  GI50: 86.5 µM (inactive)
[26]
  GI50: > 100 µM (inactive)
[27]
  GI50: > 100 µM (inactive)
[28]
  GI50: > 100 µM (inactive)
[29]
  GI50: 58.9 µM (inactive)
[30]
  GI50: > 100 µM (inactive)
[31]
  GI50: 67 µM (inactive)
[32]
  GI50: 38.1 µM (inactive)
[33]
  GI50: > 100 µM (inactive)
[34]
  GI50: > 100 µM (inactive)
[35]
  GI50: 99.5 µM (inactive)
[36]
  GI50: > 100 µM (inactive)
[37]
  GI50: > 100 µM (inactive)
[38]
  GI50: > 100 µM (inactive)
[39]
  GI50: > 100 µM (inactive)
[40]
  GI50: 89.7 µM (inactive)
[41]
  GI50: > 100 µM (inactive)
[42]
  GI50: 74.5 µM (inactive)
[43]
  GI50: > 100 µM (inactive)
[44]
  GI50: > 100 µM (inactive)
[45]
  GI50: > 100 µM (inactive)
[46]
  GI50: > 100 µM (inactive)
[47]
  GI50: > 100 µM (inactive)
[48]
  GI50: > 100 µM (inactive)
[49]
  GI50: > 100 µM (inactive)
[50]
  GI50: 97.1 µM (inactive)
[51]
  GI50: 61.5 µM (inactive)
[52]
  GI50: > 100 µM (inactive)
[53]
  GI50: > 100 µM (inactive)
[54]
  GI50: 95.9 µM (inactive)
